Measurements: patent US10143730B2, “Peptides and combination of peptides for use in immunotherapy against various cancers” (immatics biotechnologies GmbH, priority 2015, dated 2018)

Tests used:
[1] = test system: CD8+ T cells of healthy HLA-A*02+ donors; experiment: In vitro T-cell priming with aAPCs loaded with HLA-A*02/peptide complexes and anti-CD28, multimer staining; assay type: cell-based, human; conditions: for Wells positive [%] (in vitro immunogenicity): HLA-A*02 peptides (SEQ ID 1-157, 229-266), peptide-specific multimer+ CD8+ T cells after aAPC priming; for Wells (in vitro immunogenicity): HLA-A*02-binding peptides (Table 7A), Table 19A
Excerpt: FIGS. 4A to 4D show exemplary results of peptide-specific in vitro CD8+ T cell responses of a healthy HLA-A*02+ donor. CD8+ T cells were primed using artificial APCs coated with anti-CD28 mAb and HLA-A*02 in complex with Seq ID No 27 peptide (FIG. 4A, left panel), Seq ID No 229 peptide (FIG. 4B, left panel), Seq ID No 230 peptide (FIG. 4C, left panel) and Seq ID No 235 peptide (FIG. 4D, left panel), respectively. After three cycles of stimulation, the detection of peptide-reactive cells was performed by 2D multimer staining with A*02/Seq ID No 27 (FIG. 4A), A*02/Seq ID No 229 (FIG. 4B), A*02/Seq ID No 230 (FIG. 4C) or A*02/Seq ID No 235 (FIG. 4D). Right panels (FIGS. 4A, 4B, 4C and 4D) show control staining of cells stimulated with irrelevant A*02/peptide complexes. Viable singlet cells were gated for CD8+ lymphocytes. Boolean gates helped excluding false-positive events detected with multimers specific for different peptides. Frequencies of specific multimer+ cells among CD8+ lymphocytes are indicated.
In order to obtain information regarding the immunogenicity of the TUMAPs of the present invention, the inventors performed investigations using an in vitro T-cell priming assay based on repeated stimulations of CD8+ T cells with artificial antigen presenting cells (aAPCs) loaded with peptide/MHC complexes and anti-CD28 antibody.
In order to perform in vitro stimulations by artificial antigen presenting cells loaded with peptide-MHC complex (pMHC) and anti-CD28 antibody, the inventors first isolated CD8+ T cells from fresh HLA-A*02 leukapheresis products via positive selection using CD8 microbeads (Miltenyi Biotec, Bergisch-Gladbach, Germany) of healthy donors obtained from the University clinics Mannheim, Germany, after informed consent.
PBMCs and isolated CD8+ lymphocytes were incubated in T-cell medium (TCM) until use consisting of RPMI-Glutamax (Invitrogen, Karlsruhe, Germany) supplemented with 10% heat inactivated human AB serum (PAN-Biotech, Aidenbach, Germany), 100 U/ml Penicillin/100 μg/ml Streptomycin (Cambrex, Cologne, Germany), 1 mM sodium pyruvate (CC Pro, Oberdorla, Germany), 20 μg/ml Gentamycin (Cambrex). 2.5 ng/ml IL7 (PromoCell, Heidelberg, Germany) and 10 U/ml IL-2 (Novartis Pharma, Nürnberg, Germany) were also added to the TCM at this step.
Generation of pMHC/anti-CD28 coated beads, T-cell stimulations and readout was performed in a highly defined in vitro system using four different pMHC molecules per stimulation condition and 8 different pMHC molecules per readout condition.
The purified co-stimulatory mouse IgG2a anti human CD28 Ab 9.3 (Jung et al., 1987) was chemically biotinylated using Sulfo-N-hydroxysuccinimidobiotin as recommended by the manufacturer (Perbio, Bonn, Germany). Beads used were 5.6 μm diameter streptavidin coated polystyrene particles (Bangs Laboratories, Illinois, USA).
pMHC used for positive and negative control stimulations were A*0201/MLA-001 (peptide […] (SEQ ID NO. 303) from modified Melan-A/MART-1) and A*0201/DDX5-001 ([…] from DDX5, SEQ ID NO. 304), respectively.
800.000 beads/200 μl were coated in 96-well plates in the presence of 4×12.5 ng different biotin-pMHC, washed and 600 ng biotin anti-CD28 were added subsequently in a volume of 200 μl. Stimulations were initiated in 96-well plates by co-incubating […] CD8+ T cells with 2×10^5 washed coated beads in 200 μl TCM supplemented with 5 ng/ml IL-12 (PromoCell) for 3 days at 37° C. Half of the medium was then exchanged by fresh TCM supplemented with 80 U/ml IL-2 and incubating was continued for 4 days at 37° C. This stimulation cycle was performed for a total of three times. For the pMHC multimer readout using 8 different pMHC molecules per condition, a two-dimensional combinatorial coding approach was used as previously described (Andersen et al., 2012) with minor modifications encompassing coupling to 5 different fluorochromes. […]

HLA-A*02 = molecular target: T1, HLA-A*02 (Homo sapiens, UniProt P04439, D140Y/D185E/D98H/E176V/E277Q/G131W/G231S/I119V/I121R/I166T/I218V/L300P/N151K/N90K/P208A/P217A/Q86G/Q94H/R138H/R169H); experiment: MHC binding assay, UV-ligand exchange with beta2m ELISA (peptide exchange yield); conditions: binding to HLA-A*02
T1 construct: made in house
In short: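 pMHC complexes formed by UV-induced cleavage of a photolabile peptide and exchange with candidate peptide; exchange yield measured by streptavidin-capture ELISA detecting β2m with HRP anti-β2m, TMB, A450. Exchange samples diluted 100-fold; refolded HLA-A*02:01/MLA-001 monomers (15-500 ng/ml) as standards; incubations 1 h, 37 °C.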

Row | Substance | Wells positive [%] (in vitro immunogenicity) [1] | Peptide exchange (MHC class I binding score, peptide exchange yield) (HLA-A*02) | Wells (in vitro immunogenicity) [1]
1 | 233 (HLFDAFVSV; listed as Homo sapiens) [compound 233] | ++ (20%-49% = ++) | +++ (50%-75% = +++) | 
2 | 4 (KLMPGTYTL; listed as Homo sapiens) [compound 4] | + (<20% = +) | ++++ (> = 75% = ++++) | 
3 | 229 (AILAHLNTV; listed as Homo sapiens) [compound 229] | ++ (20%-49% = ++) | ++++ (> = 75% = ++++) | 
4 | 150 (VLYDRPLKI; listed as Homo sapiens) [compound 150] | ++ (20%-49% = ++) | +++ (50%-75% = +++) | 
5 | 251 (ALSVLRLAL; listed as Homo sapiens) [compound 251] | ++ (20%-49% = ++) | +++ (50%-75% = +++) | 
6 | 18 (ILLDLTDNRL; listed as Homo sapiens) [compound 18] | + (<20% = +) | +++ (50%-75% = +++) | 
7 | 247 (ALYEGYATV; listed as Homo sapiens) [compound 247] | ++ (20%-49% = ++) | +++ (50%-75% = +++) | 
8 | 249 (GLCERLVSL; listed as Homo sapiens) [compound 249] | + (<20% = +) | ++++ (> = 75% = ++++) | 
9 | 35 (FLLPFSTVYL; listed as Homo sapiens) [compound 35] | + (<20% = +) | +++ (50%-75% = +++) | 
10 | 141 (FLDKVLVAA; listed as Homo sapiens) [compound 141] | + (<20% = +) | +++ (50%-75% = +++) | 
11 | 12 (GLLPLLHRA; listed as Homo sapiens) [compound 12] | ++++ (> = 70% = ++++) | ++++ (> = 75% = ++++) | 
12 | 14 (ILAKDLFEI; listed as Homo sapiens) [compound 14] | ++ (20%-49% = ++) | ++++ (> = 75% = ++++) | 
13 | 151 (SVLDSTAKV; listed as Homo sapiens) [compound 151] | ++ (20%-49% = ++) | ++ (20%-49% = ++) | 
14 | 7 (ILDHEVPSL; listed as Homo sapiens) [compound 7] | ++ (20%-49% = ++) | +++ (50%-75% = +++) | 
15 | 6 (ALFDSLRHV; listed as Homo sapiens) [compound 6] | ++ (20%-49% = ++) | +++ (50%-75% = +++) | 
16 | 1 (LLYPEPWSV; listed as Homo sapiens) [compound 1] | ++ (20%-49% = ++) | ++++ (> = 75% = ++++) | 
17 | 230 (KLQNIMMLL; listed as Homo sapiens) [compound 230] | ++++ (> = 70% = ++++) | ++ (20%-49% = ++) | 
18 | 5 (GIVAHIQEV; listed as Homo sapiens) [compound 5] | + (<20% = +) | +++ (50%-75% = +++) | 

Row | Substance | Wells positive [%] (in vitro immunogenicity) [1] | Peptide exchange (MHC class I binding score, peptide exchange yield) (HLA-A*02) | Wells (in vitro immunogenicity) [1]
19 | 27 (RLMEENWNA; listed as Homo sapiens) [compound 27] | +++ (50%-69% = +++) | +++ (50%-75% = +++) | 
20 | 29 (YLLDPSITL; listed as Homo sapiens) [compound 29] | + (<20% = +) | +++ (50%-75% = +++) | 
21 | 291 (KLDETGNSL; listed as Homo sapiens) [compound 291] |  |  | + (<20% = +)
22 | 92 (GLLFSLRSV; listed as Homo sapiens) [compound 92] | ++ (20%-49% = ++) | ++++ (> = 75% = ++++) | 
23 | 11 (ALSPSYLTV; listed as Homo sapiens) [compound 11] | ++ (20%-49% = ++) | +++ (50%-75% = +++) | 
24 | 235 (KIIDFLSAL; listed as Homo sapiens) [compound 235] | +++ (50%-69% = +++) | +++ (50%-75% = +++) | 
25 | 232 (KIFPAALQLV; listed as Homo sapiens) [compound 232] | ++ (20%-49% = ++) | +++ (50%-75% = +++) | 
26 | 31 (TITETTVEV; listed as Homo sapiens) [compound 31] | + (<20% = +) | +++ (50%-75% = +++) | 
27 | 144 (ALLAFFPGL; listed as Homo sapiens) [compound 144] | +++ (50%-69% = +++) | +++ (50%-75% = +++) | 
28 | 96 (LLVSHLYLV; listed as Homo sapiens) [compound 96] | ++ (20%-49% = ++) | ++ (20%-49% = ++) | 
29 | 293 (FLVDGSWSI; listed as Homo sapiens) [compound 293] |  |  | + (<20% = +)
30 | 292 (GMMTAILGV; listed as Homo sapiens) [compound 292] |  |  | + (<20% = +)
31 | 20 (GLSQITNQL; listed as Homo sapiens) [compound 20] | ++ (20%-49% = ++) | +++ (50%-75% = +++) | 
32 | 149 (ILNTHITEL; listed as Homo sapiens) [compound 149] | + (<20% = +) | +++ (50%-75% = +++) | 
33 | 138 (ALLAKILQI; listed as Homo sapiens) [compound 138] | ++ (20%-49% = ++) | +++ (50%-75% = +++) | 
34 | 248 (YLDRFLAGV; listed as Homo sapiens) [compound 248] | ++ (20%-49% = ++) | ++++ (> = 75% = ++++) | 
35 | 90 (FLQDLEQRL; listed as Homo sapiens) [compound 90] | + (<20% = +) | +++ (50%-75% = +++) | 
